Assay [1] deals with Botrytis cinerea. It is filed as cell-based. The protocol: (§1) The experiments were conducted in an optimal minimal medium for each pathogen. The media and growth conditions were described in Tables 2 and 3. MIC and MBC values were determined following the procedures described above. […] Fifty microliters of serially diluted peptides (2-fold the final concentration) were added in a 96-well polystyrene plate with 50 μL of the fungal spore suspension. […] The plates were incubated at an optimal temperature without shaking. […] MFC was determined as the lowest peptide concentration at which no fungal growth was observed.

Assay [2] relates to Staphylococcus epidermidis ATCC 14990.
For assay [3], the system named is Staphylococcus aureus BCRC 10777.
For assay [4], the system named is Klebsiella pneumonia NTUH-K2044.
The test system of assay [5] is Salmonella typhimurium NCHU 15721.
In assay [6] the test system is Pseudomonas aeruginosa ATCC 9027.
Assay [7] deals with Erwinia chrysanthemi. The assay is classed as cell-based. The protocol: (§2) The effect of peptide length on the antimicrobial activity was investigated by deciding the minimal inhibitory concentration (MIC) and minimal bactericidal concentration (MBC) for each peptide against the pathogen with the media and growth conditions of phytopathogenic bacteria and E. coli as described in Table 1. Single bacterial colony grown on an optimal rich agar medium was picked, and each grew in 3 mL of the same rich liquid medium for 4 to 6 h. For experiments carried out in the rich medium, the bacterial broth culture was then diluted in the same medium to give a final concentration of OD600=0.08, and then further diluted 100 folds in the same medium. For experiments carried out in the minimal medium, the bacterial cells were collected from the bacterial liquid culture by centrifugation, re-suspended in an optimal minimal medium to give a final concentration of OD600=0.08, and then further diluted 100 folds in the same minimal medium. Fifty microliters of serially diluted peptides (2-fold the final concentration) were added in a 96-well polystyrene plate with 50 μL of the bacterial culture. […] The plates were incubated at an optimal temperature without shaking. […] MBC was determined as the lowest peptide concentration at which no colonies formed. The experiments were conducted in an optimal minimal medium for each pathogen. The media and growth conditions were described in Tables 2 and 3. MIC and MBC values were determined following the procedures described above. […] Fifty microliters of serially diluted peptides (2-fold the final concentration) were added in a 96-well polystyrene plate with 50 μL of the fungal spore suspension.

Assay [8] deals with Pectobacterium carotovorum subsp. carotovorum. It is filed as cell-based. The protocol: as §2
Assay [9] concerns Eco DH5α. Put plainly: MIC and MBC by serial dilution in 96-well plate. The conditions noted are these: Table 13. It is filed as cell-based, Escherichia coli. The protocol: The effect of peptide length on the antimicrobial activity was investigated by deciding the minimal inhibitory concentration (MIC) and minimal bactericidal concentration (MBC) for each peptide against the pathogen with the media and growth conditions of phytopathogenic bacteria and E. coli as described in Table 1. Single bacterial colony grown on an optimal rich agar medium was picked, and each grew in 3 mL of the same rich liquid medium for 4 to 6 h.
For experiments carried out in the rich medium, the bacterial broth culture was then diluted in the same medium to give a final concentration of OD600=0.08, and then further diluted 100 folds in the same medium.
For experiments carried out in the minimal medium, the bacterial cells were collected from the bacterial liquid culture by centrifugation, re-suspended in an optimal minimal medium to give a final concentration of OD600=0.08, and then further diluted 100 folds in the same minimal medium.
Fifty microliters of serially diluted peptides (2-fold the final concentration) were added in a 96-well polystyrene plate with 50 μL of the bacterial culture. The final concentrations of peptides were 0, 2, 4, 8, 16 and 32 μg/mL. The plates were incubated at an optimal temperature without shaking.
MBC was determined as the lowest peptide concentration at which no colonies formed.

For assay [10], the system named is Cgl FST02. The assay is classed as cell-based, Colletotricum gloeosporioides. The conditions noted are these: Cgl FST02; optimal minimal media (Table 11). The protocol: as §1
[11] abbreviates: Salmonella typhimurium NCHU 15721.
[12] abbreviates: Pseudomonas aeruginosa ATCC 9027.
Where [13] appears, read: Bc, optimal minimal media (Table 11).

The MIC is the smallest concentration in the dilution series that meets the test's criterion for growth inhibition. The low end stands for inhibition by little substance, the high end for a need for much substance. By MBC is commonly meant the smallest concentration meeting the test's criterion for killing. Read a high MBC as less potent killing.

Converted amounts (≈) assume the structure as drawn. Like-named read-outs stand apart in the source and are kept apart here. Non-standard residues stand in square brackets, D forms with d. Residues, ends and D or L forms follow the SMILES beside them. *: point of attachment. Palmitoyl = CCCCCCCCCCCCCCCC(=O)*; Octanoyl = CCCCCCCC(=O)*; Orn = NCCC[C@H](N)C(=O)O; Hexanoyl = CCCCCC(=O)*; Butyryl = CCCC(=O)*

Consider `CCCCCCCCCCCCCCCC(=O)N[C@@H](Cc1c[nH]c2ccccc12)C(=O)N[C@@H](CCCCN)C(=O)N[C@@H](CCCCN)C(=O)N[C@@H](CC(C)C)C(=O)N[C@@H](CCCCN)C(=O)N[C@@H](CCCCN)C(=O)N[C@@H](CC(C)C)C(=O)N[C@@H](CC(C)C)C(=O)N[C@@H](CCCCN)C(=O)N[C@@H](CCCCN)C(=O)N[C@@H](CC(C)C)C(=O)N[C@@H](CCCCN)C(=O)N[C@@H](CCCCN)C(=O)N[C@@H](CC(C)C)C(N)=O` [pepD2P] (Palmitoyl-WKKLKKLLKKLKKL-NH2), for which, in assay [1], the MFC stood at 6.4 µg/mL (≈ 3.15 µM) and the MIC amounted to 6.4 µg/mL (≈ 3.15 µM).

Regarding `CCCC(=O)N[C@@H](Cc1c[nH]c2ccccc12)C(=O)N[C@@H](CCCCN)C(=O)N[C@@H](CCCCN)C(=O)N[C@@H](CC(C)C)C(=O)N[C@@H](CCCCN)C(=O)N[C@@H](CCCCN)C(=O)N[C@@H](CC(C)C)C(=O)N[C@@H](CC(C)C)C(=O)N[C@@H](CCCCN)C(=O)N[C@@H](CCCCN)C(=O)N[C@@H](CC(C)C)C(N)=O` [pepD3B] (Butyryl-WKKLKKLLKKL-NH2), the minimal bactericidal concentration (MBC) in assay [2], in assay [3] and in assay [4] was 16 µg/mL (≈ 10.7 µM) in each case. Moreover, the MIC in assay [2], in assay [3] and in assay [4] was 16 µg/mL (≈ 10.7 µM) throughout.

As for `CCCCCC(=O)N[C@@H](Cc1c[nH]c2ccccc12)C(=O)N[C@@H](CCCCN)C(=O)N[C@@H](CCCCN)C(=O)N[C@@H](CC(C)C)C(=O)N[C@@H](CCCCN)C(=O)N[C@@H](CCCCN)C(=O)N[C@@H](CC(C)C)C(=O)N[C@@H](CC(C)C)C(=O)N[C@@H](CCCCN)C(=O)N[C@@H](CCCCN)C(=O)N[C@@H](CC(C)C)C(N)=O` [pepD3H] (Hexanoyl-WKKLKKLLKKL-NH2), the MBC amounted to 32 µg/mL (≈ 21 µM) in assay [5] (murium NCHU 15721); 16 µg/mL (≈ 10.5 µM) in assay [2]; 8 µg/mL (≈ 5.25 µM) in assay [3]; 8 µg/mL (≈ 5.25 µM) in [6] (ATCC 9027); 16 µg/mL (≈ 10.5 µM) in [4]. The MIC came to 16 µg/mL (≈ 10.5 µM) in assay [5] (murium NCHU 15721); 16 µg/mL (≈ 10.5 µM) in assay [2]; 8 µg/mL (≈ 5.25 µM) in assay [3]; 4 µg/mL (≈ 2.63 µM) in [6] (ATCC 9027); 16 µg/mL (≈ 10.5 µM) in assay [4].

Consider `CCCCCCCC(=O)N[C@@H](Cc1c[nH]c2ccccc12)C(=O)N[C@@H](CCCCN)C(=O)N[C@@H](CCCCN)C(=O)N[C@@H](CC(C)C)C(=O)N[C@@H](CCCCN)C(=O)N[C@@H](CCCCN)C(=O)N[C@@H](CC(C)C)C(=O)N[C@@H](CC(C)C)C(=O)N[C@@H](CCCCN)C(=O)N[C@@H](CCCCN)C(=O)N[C@@H](CC(C)C)C(N)=O` [pepD3O] (Octanoyl-WKKLKKLLKKL-NH2), for which the values for the minimum bactericidal concentration (MBC) in [2], in [3] and in assay [4] were 8 µg/mL (≈ 5.16 µM), 8 µg/mL (≈ 5.16 µM) and 16 µg/mL (≈ 10.3 µM), respectively. The MIC in assay [2] is 8 µg/mL (≈ 5.16 µM); in [3], 8 µg/mL (≈ 5.16 µM); in assay [4], 16 µg/mL (≈ 10.3 µM).

`CC(=O)N[C@@H](Cc1c[nH]c2ccccc12)C(=O)N[C@@H](CCCN)C(=O)N[C@@H](CCCN)C(=O)N[C@@H](CC(C)C)C(=O)N[C@@H](CCCN)C(=O)N[C@@H](CCCN)C(=O)N[C@@H](CC(C)C)C(=O)N[C@@H](CC(C)C)C(=O)N[C@@H](CCCN)C(=O)N[C@@H](CCCN)C(=O)N[C@@H](CC(C)C)C(=O)N[C@@H](CCCN)C(=O)N[C@@H](CCCN)C(=O)N[C@@H](CC(C)C)C(N)=O` [pepO2, Ac-WOOLOOLLOOLOOL-NH2] (Ac-W[Orn][Orn]L[Orn][Orn]LL[Orn][Orn]L[Orn][Orn]L-NH2): the minimum bactericidal concentration (MBC) in [2], in [3] and in [4] was 32 µg/mL (≈ 18.6 µM) in each case. Further, the MIC in assay [2] is 32 µg/mL (≈ 18.6 µM); in assay [3] it was 32 µg/mL (≈ 18.6 µM); in assay [4], 16 µg/mL (≈ 9.28 µM).

As for Ac-WKKIKKIIKKIKKI-NH2 [pepI2], the MBC in assay [5] (setting [11]) worked out at 16 µg/mL; in assay [7], 16.0 µg/mL; in [8], 1.8 µg/mL; in assay [2], 32 µg/mL; in [9] it was 5.3 µg/mL; in assay [3], 32 µg/mL. Moreover, the minimal bactericidal concentration (MBC) came to 4 µg/mL in assay [6] (ATCC 9027) and 32 µg/mL in assay [4]. The MIC in [5] (setting [11]) turned out to be 8 µg/mL; in [7], 16.0 µg/mL; in [8], 1.5 µg/mL; in assay [2], 16 µg/mL; in assay [9] it was 5.3 µg/mL; in assay [3], 32 µg/mL. Further, the MIC in assay [6] (ATCC 9027) is 4 µg/mL; in [4], 16 µg/mL.

In assay [6] (ATCC 9027), Ac-WKKLHKLLKKL-NH2 [pepD3-5H] had an MBC of 8 µg/mL and an MIC of 4 µg/mL.

In assay [6] (ATCC 9027), Ac-WKKLKKALKKL-NH2 [pepD3-7A] returned an MBC of 8 µg/mL and an MIC of 4 µg/mL.

In [6] (ATCC 9027), Ac-WKKLKKFLKKL-NH2 [pepD3-7F] displayed a minimal bactericidal concentration (MBC) of 8 µg/mL and a minimum inhibitory concentration (MIC) of 4 µg/mL.

Turning to Ac-WKKLKKILKKL-NH2 [pepD3-7I], in assay [6] (ATCC 9027), the minimum bactericidal concentration (MBC) amounted to 4 µg/mL and the MIC was 4 µg/mL.

In [6] (ATCC 9027), Ac-WKKLKKMLKKL-NH2 [pepD3-7M] came in with a minimum bactericidal concentration (MBC) of 8 µg/mL and a minimal inhibitory concentration (MIC) of 4 µg/mL.

In assay [6] (setting [12]), Ac-WKKLRKLLKKL-NH2 [pepD3-5R] displayed a minimum bactericidal concentration (MBC) of 8 µg/mL and a minimal inhibitory concentration (MIC) of 4 µg/mL.

As to Ac-WKKVKKVVKKVKKV-NH2 [pepV2], in assay [9], the minimum bactericidal concentration (MBC) came out at 32.0 µg/mL and the minimum inhibitory concentration (MIC) is 32.0 µg/mL.

As for Ac-WRRLRRLLRRLRRL-NH2 [pepR2], the MBC in [2] was determined as 16 µg/mL; in assay [3], 16 µg/mL; in assay [4], 32 µg/mL. The MIC in [2] is 16 µg/mL; in assay [3], 16 µg/mL; in [4], 32 µg/mL.

With “Stearyl-WKKLKKLLKKLKKL-NH2 (stearyl-WKKLKKLLKKLKKL-NH2) [pepD2S, 11]”, the MFC result in assay [10] and in assay [1] (setting [13]) was “— (“—” indicates no antimicrobial activity being detected at the highest peptide concentration (32 μg/mL) tested in this study.)” in each case. Moreover, the MIC result in [10] and in [1] (setting [13]) was “— (“—” indicates no antimicrobial activity being detected at the highest peptide concentration (32 μg/mL) tested in this study.)” throughout.

For the origin of these results see patent publication US20240101602A1, “ANTIMICROBIAL PEPTIDES AND METHOD OF PREVENTING OR TREATING INFECTION BY USING THE SAME” (priority 2020, published 2024).
